In PMC6364417, “Kinase inhibitor library screening identifies synergistic drug combinations effective in sensitive and resistant melanoma cells” (Journal of Experimental & Clinical Cancer Research : CR, 2019):

How the values were obtained:
Test in all cases: Kinase inhibitor library screening, PrestoBlue cell viability, 1 or 10 μM, 72 h
IGR37 cells (parental) = conditions: IGR37 Parental, in %
Procedure: (§1) After 72 h of treatment, cell viability was assessed using the PrestoBlue Cell Viability Reagent (ThermoFisher Scientific). Measurements were performed with the CLARIOstar Monochromator microplate reader (BMG Labtech).
(§2) Kinase inhibitor library screening. […] Each cell line was treated in its sensitive form (parental), and also as 2 resistant derivatives, which were made resistant to either Vemurafenib (XP) or Dabrafenib (GP). Drugs were added at 2 different concentrations, 1 and 10 μM, for 72 h and cell viability was assessed using the PrestoBlue Cell Viability assay. Results are depicted as % viability compared to untreated cells. Each cell line was analyzed at least in duplicate. […] (XLSX 95 kb)

[1] = test system: IGR37-GP cells (Dabrafenib-resistant); conditions: IGR37 GP
Procedure: as §1, §2

[2] = test system: 501Mel-GP cells (Dabrafenib-resistant); conditions: 501Mel GP, in %
Procedure: as §1, §2

[3] = test system: IGR37-XP cells (Vemurafenib-resistant); conditions: IGR37 XP
Procedure: as §1, §2

A375 cells (parental) = conditions: A375 Parental
Procedure: as §1, §2

[4] = test system: A375-GP cells (Dabrafenib-resistant); conditions: A375 GP
Procedure: as §1, §2

501Mel cells (parental) = conditions: 501Mel Parental, in %
Procedure: as §1, §2

[5] = test system: A375-XP cells (Vemurafenib-resistant); conditions: A375 XP
Procedure: as §1, §2

[6] = test system: 501Mel-XP cells (Vemurafenib-resistant); conditions: 501Mel XP, in %
Procedure: as §1, §2

SMILES	Cell viability in kinase inhibitor library screening, IGR37 Parental, 1μΜ (IGR37 cells (parental); 1μΜ, 72 h)	Cell viability in kinase inhibitor library screening, IGR37 Parental, 10μΜ (IGR37 cells (parental); 10μΜ, 72 h)	Cell viability in kinase inhibitor library screening, IGR37 GP, 10μΜ ([1]; 10μΜ, 72 h)	Cell viability in kinase inhibitor library screening, IGR37 GP, 1μΜ ([1]; 1μΜ, 72 h, in %)	Cell viability in kinase inhibitor library screening, 501Mel GP, 1μΜ ([2]; 1μΜ, 72 h)	Cell viability in kinase inhibitor library screening, 501Mel GP, 10μΜ ([2]; 10μΜ, 72 h)	Cell viability in kinase inhibitor library screening, IGR37 XP, 10μΜ ([3]; 10μΜ, 72 h)	Cell viability in kinase inhibitor library screening, IGR37 XP, 1μΜ ([3]; 1μΜ, 72 h, in %)	Cell viability in kinase inhibitor library screening, A375 Parental, 10μΜ (A375 cells (parental); 10μΜ, 72 h)	Cell viability in kinase inhibitor library screening, A375 Parental, 1μΜ (A375 cells (parental); 1μΜ, 72 h)	Cell viability in kinase inhibitor library screening, A375 GP, 1μΜ ([4]; 1μΜ, 72 h)	Cell viability in kinase inhibitor library screening, A375 GP, 10μΜ ([4]; 10μΜ, 72 h)	Cell viability in kinase inhibitor library screening, 501Mel Parental, 1μΜ (501Mel cells (parental); 1μΜ, 72 h)	Cell viability in kinase inhibitor library screening, 501Mel Parental, 10μΜ (501Mel cells (parental); 10μΜ, 72 h)	Cell viability in kinase inhibitor library screening, A375 XP, 1μΜ ([5]; 1μΜ, 72 h)	Cell viability in kinase inhibitor library screening, A375 XP, 10μΜ ([5]; 10μΜ, 72 h)	Cell viability in kinase inhibitor library screening, 501Mel XP, 1μΜ ([6]; 1μΜ, 72 h)	Cell viability in kinase inhibitor library screening, 501Mel XP, 10μΜ ([6]; 10μΜ, 72 h)	also measured
CCN(CC)CCNC(=O)c1c(C)[nH]c(/C=C2\C(=O)Nc3ccc(F)cc32)c1C.O=C(O)C[C@H](O)C(=O)O [Sunitinib Malate (Sutent)]																			cell viability (kinase inhibitor library screening) (IGR37 cells (parental); 1μΜ): 97.5; cell viability (kinase inhibitor library screening) (IGR37 cells (parental); 10μΜ): 68.0; cell viability (kinase inhibitor library screening) ([1]; 1μΜ, in %): 87.4; cell viability (kinase inhibitor library screening) ([1]; 10μΜ, in %): 7.9; cell viability (kinase inhibitor library screening) ([2]; 10μΜ): 1.4; cell viability (kinase inhibitor library screening) ([3]; 1μΜ, in %): 100.5; cell viability (kinase inhibitor library screening) ([3]; 10μΜ, in %): 1.2; cell viability (kinase inhibitor library screening) (A375 cells (parental); 1μΜ, in %): 104.0; cell viability (kinase inhibitor library screening) (A375 cells (parental); 10μΜ, in %): 67.2; cell viability (kinase inhibitor library screening) ([4]; 10μΜ, in %): 72.3; cell viability (kinase inhibitor library screening) (501Mel cells (parental); 1μΜ): 99.9; cell viability (kinase inhibitor library screening) (501Mel cells (parental); 10μΜ): 0.237; cell viability (kinase inhibitor library screening) ([5]; 10μΜ, in %): 68.1; cell viability (kinase inhibitor library screening) ([6]; 1μΜ): 92.7; cell viability (kinase inhibitor library screening) ([6]; 10μΜ): -0.452
CC[C@@H]1C(=O)N(C)c2cnc(Nc3ccc(C(=O)NC4CCN(C)CC4)cc3OC)nc2N1C1CCCC1 [BI 2536]	71.6	1.3	2.8%	82.9	52.3	0.263	1.5%	76.3	30.1	31.0	31.1	15.5	77.3	1.6	42.2	8.5	29.2	-0.237	
COc1ccc(-c2ccc3c(N4CCOC[C@@H]4C)nc(N4CCOC[C@@H]4C)nc3n2)cc1CO [AZD8055]	29.8	25.2	29.5%	45.1	22.1	11.9	12.5%	34.7	19.2	23.1	25.5	16.6	17.3	8.1	21.6	17.3	13.9	4.6	
CC(=O)Nc1cccc(-n2c(=O)n(C3CC3)c(=O)c3c(Nc4ccc(I)cc4F)n(C)c(=O)c(C)c32)c1 [GSK1120212 (Trametinib)]																			cell viability, IGR37 Parental, 1μΜ (IGR37 cells (parental); 1μΜ, 72 h): 37.2; cell viability, IGR37 Parental, 10μΜ (IGR37 cells (parental); 10μΜ, 72 h): 36.1; cell viability, IGR37 GP, 10μΜ ([1]; 10μΜ, 72 h): 56.9%; cell viability, IGR37 GP, 1μΜ ([1]; 1μΜ, 72 h, in %): 89.3; cell viability, 501Mel GP, 1μΜ ([2]; 1μΜ, 72 h): 90.4; cell viability, 501Mel GP, 10μΜ ([2]; 10μΜ, 72 h): 77.4; cell viability, IGR37 XP, 10μΜ ([3]; 10μΜ, 72 h): 22.1%; cell viability, IGR37 XP, 1μΜ ([3]; 1μΜ, 72 h, in %): 38.3; cell viability, A375 Parental, 1μΜ (A375 cells (parental); 1μΜ, 72 h, in %): 21.7; cell viability, A375 Parental, 10μΜ (A375 cells (parental); 10μΜ, 72 h, in %): 21.8; cell viability, A375 GP, 1μΜ ([4]; 1μΜ, 72 h, in %): 18.8; cell viability, A375 GP, 10μΜ ([4]; 10μΜ, 72 h, in %): 16.2; cell viability, 501Mel Parental, 1μΜ (501Mel cells (parental); 1μΜ, 72 h): 55.4; cell viability, 501Mel Parental, 10μΜ (501Mel cells (parental); 10μΜ, 72 h): 64.9; cell viability, A375 XP, 1μΜ ([5]; 1μΜ, 72 h, in %): 14.9; cell viability, A375 XP, 10μΜ ([5]; 10μΜ, 72 h, in %): 14.6; cell viability, 501Mel XP, 1μΜ ([6]; 1μΜ, 72 h): 75.6; cell viability, 501Mel XP, 10μΜ ([6]; 10μΜ, 72 h): 62.1
